# Measurements as given in article PMC11070402, “New antiproliferative 3-substituted oxindoles inhibiting EGFR/VEGFR-2 and tubulin polymerization” (Molecular Diversity, 2023).
# Read-outs that look alike come from different tables or passages of the source.
# Columns and labels:
# A549/ATCC = experiment: NCI one-dose assay, A549/ATCC; assay type: cell-based; conditions: Homo sapiens, 10 µM single dose, 48 h incubation, read-out: cell growth inhibition % (GI %)
# Procedure: (§1) All novel scaffolds 6a–j were carefully selected by the National Cancer Institute (NCI), Bethesda, USA, to elucidate their cytotoxic activity versus 60 human cancer cell lines at 10 µM as a single-dose concentration after a 48 h incubation period.
# (§2) National Cancer Institution selected all the synthesized 6a–j (NCI), Bethesda, USA, for in vitro one-dose antitumor assay. The methodology protocol for the NCI anticancer screening was reported in detail elsewhere (http://www.dtp.nci.nih.gov). The anticancer assay was performed in full NCI 60 cell lines extracted from nine tumor cell lines, including leukemia, melanoma, lung, colon, CNS, ovarian, renal, prostate, and breast cancer cell lines.
# MCF-7 = experiment: NCI one-dose assay, MCF-7; assay type: cell-based, human; conditions: MCF-7, 10 µM single dose, 48 h incubation
# Procedure: as §1, §2
# tubulin = experiment: Tubulin polymerization inhibition assay; assay type: biochemical
# MOLT-4 = experiment: NCI one-dose assay, MOLT-4; assay type: cell-based; conditions: Homo sapiens; MOLT-4; 10 µM single dose, 48 h incubation; read-out: cell growth inhibition % (GI %)
# Procedure: as §1, §2
# LOX IMVI = experiment: NCI one-dose assay, LOX IMVI; assay type: cell-based; conditions: Homo sapiens; LOX IMVI; 10 µM single dose, 48 h incubation; read-out: cell growth inhibition % (GI %)
# Procedure: as §1, §2
# [1] = system: Human Skin Fibroblasts (HSF) cells; experiment: Margin of safety: cytotoxicity on human skin fibroblasts (SRB assay); assay type: cell-based; conditions: Human Skin Fibroblasts, SRB assay, 72 h exposure, read-out: HSF (IC50 ± SD)
# Procedure: Cell viability was assessed via SRB assay. Aliquots of 100 µl cell suspension (5 × 10^3 cells) were in 96-well plates and incubated in a complete media for 24 h. […] After 72 h of drug exposure, cells were fixed by replacing media with 150 µl of 10% TCA and incubated at 4 °C for 1 h. The TCA solution was removed, and the cells were washed 5 times with distilled water. Aliquots of […] SRB solution (0.4 w/v) were added and incubated in a dark place at room temperature for 10 min. Plates were washed 3 times with 1% acetic acid and allowed to air-dry overnight. Then, 150 µl of TRIS (10 mM) was added to dissolve the protein-bound SRB stain; the absorbance was measured at 540 nm using a BMG LAB TECH®-FLUO star Omega microplate reader (Ortenberg, Germany).
# SR = experiment: NCI one-dose assay, SR; assay type: cell-based; conditions: Homo sapiens; SR; 10 µM single dose, 48 h incubation; read-out: cell growth inhibition % (GI %)
# Procedure: as §1, §2
# [2] = system: MCF-7 (human breast cancer); experiment: Cytotoxicity versus MCF-7 cell line (MTT assay); conditions: MCF7, read-out: MCF-7 (IC50 ± SD, uM)
# Procedure: IC50 values were recorded using the Boltzman sigmoidal concentration–response curve equation using the nonlinear regression fitting models by GraphPad, Prism version 5 (GraphPad Software Inc., La Jolla, CA). MTT assay for MCF-7 cell lines. Cell line cells were obtained from American Type Culture Collection. Cells were cultured using DMEM media (Invitrogen/Life Technologies) supplemented with 10% FBS (Hyclone), 10 ug/ml of insulin (Sigma), and 1% penicillin–streptomycin. All the other chemicals and reagents were purchased from Sigma or Invitrogen. Cells were seeded in plates (cells density 1.2–1.8 × 10,000 cells/well) in a volume of 100 μl full-growth medium + 100 μl of the tested scaffold per well in a 96-well plate for 24 h before the application of the MTT assay protocol as reported, supplementary information.
# NCI-H23 = experiment: NCI one-dose assay, NCI-H23; assay type: cell-based; conditions: Homo sapiens; NCI-H23; 10 µM single dose, 48 h incubation; read-out: cell growth inhibition % (GI %)
# Procedure: as §1, §2
# K-562 = experiment: NCI one-dose assay, K-562; assay type: cell-based; conditions: Homo sapiens, K562; K-562; 10 µM single dose, 48 h incubation; read-out: cell growth inhibition % (GI %)
# Procedure: as §1, §2
# [3] = system: 60 human cancer cell lines; experiment: NCI one-dose assay against sixty NCI cancer cell lines; assay type: cell-based
# Procedure: as §1, §2
# SK-MEL-5 = experiment: NCI one-dose assay, SK-MEL-5; assay type: cell-based; conditions: Homo sapiens; SK-MEL-5; 10 µM single dose, 48 h incubation; read-out: cell growth inhibition % (GI %)
# Procedure: as §1, §2
# [4] = system: HOP-92 (non-small cell lung cancer cell line); experiment: NCI one-dose assay, HOP-92; assay type: cell-based; conditions: Homo sapiens; HOP-92 (Non-Small Cell Lung Cancer), 10 uM single dose; read-out: Growth inhibition %
# Procedure: as §1, §2
# UO-31 = experiment: NCI one-dose assay, UO-31; assay type: cell-based; conditions: Homo sapiens; UO-31; 10 µM single dose, 48 h incubation; read-out: cell growth inhibition % (GI %)
# Procedure: as §1, §2
# [5] = system: SNB-75 cells (CNS cancer cell line); experiment: NCI one-dose assay, SNB-75; assay type: cell-based; conditions: Homo sapiens; SNB-75 (CNS Cancer), 10 uM single dose; read-out: Growth inhibition %
# Procedure: as §1, §2
# T-47D = experiment: NCI one-dose assay, T-47D; assay type: cell-based; conditions: Homo sapiens, T47D; T-47D; 10 µM single dose, 48 h incubation; read-out: cell growth inhibition % (GI %)
# Procedure: as §1, §2
structure (smiles),measurement,setting,value
"O=C1Nc2ccccc2C1=Cc1ccc(OCC(=O)c2ccc(Br)cc2)cc1 [Compound 6f, 3-{4-[2-(4-Bromophenyl)-2-oxoethoxy]benzylidene}indolin-2-one]",inhibition at 10 µM,A549/ATCC,41.6%
same,inhibition at 10 µM,"MCF-7; Homo sapiens, MCF7, 48 h, read-out: cell growth inhibition % (GI %)",72.6%
same,cell growth inhibition % (GI %),MCF-7,70.30%
same,%inh Tub,tubulin; conc 0.1 (uM printed only in the CA-4 head),7%
same,%inh Tub,tubulin; conc 1 (uM printed only in the CA-4 head),15%
same,%inh Tub,tubulin; conc 10 (uM printed only in the CA-4 head),56%
same,%inh Tub,tubulin; conc 100 (uM printed only in the CA-4 head),80%
same,IC50,tubulin; read-out: Tubulin polymerization inhibition (IC50 ± SD),7.99 ± 0.49 µM
same,inhibition at 10 µM,MOLT-4,91.5%
same,inhibition at 10 µM,LOX IMVI,71.1%
same,IC50,"[1]; Homo sapiens, HSF, 72 h",19.4 µM
same,IC50,[1],19.4 ± 1.17 µM
same,inhibition at 10 µM,SR,63.7%
same,IC50,[2],14.8 ± 0.47 µM
same,inhibition at 10 µM,NCI-H23,49.1%
same,inhibition at 10 µM,K-562,72.2%
same,inhibition at 10 µM,"[3]; 786-0 (Renal Cancer), 10 uM single dose, read-out: Growth inhibition %",10.2%
same,inhibition at 10 µM,"[3]; ACHN (Renal Cancer), 10 uM single dose, read-out: Growth inhibition %",30%
same,inhibition at 10 µM,"[3]; BT-549 (Breast Cancer), 10 uM single dose, read-out: Growth inhibition %",43.4%
same,inhibition at 10 µM,"[3]; CAKI-1 (Renal Cancer), 10 uM single dose, read-out: Growth inhibition %",32.2%
same,inhibition at 10 µM,"[3]; CCRF-CEM (Leukemia), 10 uM single dose, read-out: Growth inhibition %",41.8%
same,inhibition at 10 µM,"[3]; COLO 205 (Colon Cancer), 10 uM single dose, read-out: Growth inhibition %",34.1%
same,inhibition at 10 µM,"[3]; DU-145 (Prostate Cancer), 10 uM single dose, read-out: Growth inhibition %",14.4%
same,inhibition at 10 µM,"[3]; EKVX (Non-Small Cell Lung Cancer), 10 uM single dose, read-out: Growth inhibition %",34.4%
same,inhibition at 10 µM,"[3]; HCC-2998 (Colon Cancer), 10 uM single dose, read-out: Growth inhibition %",14.9%
same,inhibition at 10 µM,"[3]; HCT-15 (Colon Cancer), 10 uM single dose, read-out: Growth inhibition %",54.6%
same,inhibition at 10 µM,"[3]; HCT-116 (Colon Cancer), 10 uM single dose, read-out: Growth inhibition %",44.6%
same,inhibition at 10 µM,"[3]; HL-60(TB) (Leukemia), 10 uM single dose, read-out: Growth inhibition %",59.6%
same,inhibition at 10 µM,"[3]; HS 578T (Breast Cancer), 10 uM single dose, read-out: Growth inhibition %",15.6%
same,inhibition at 10 µM,"[3]; HT-29, HT29 (Colon Cancer), 10 uM single dose, read-out: Growth inhibition %",17.2%
same,inhibition at 10 µM,"[3]; IGROV-1, IGROV1 (Ovarian Cancer), 10 uM single dose, read-out: Growth inhibition %",21.7%
same,inhibition at 10 µM,"[3]; KM12 (Colon Cancer), 10 uM single dose, read-out: Growth inhibition %",22.7%
same,inhibition at 10 µM,"[3]; M14 (Melanoma), 10 uM single dose, read-out: Growth inhibition %",26.9%
same,inhibition at 10 µM,"[3]; MALME-3M (Melanoma), 10 uM single dose, read-out: Growth inhibition %",19%
same,inhibition at 10 µM,"[3]; MDA-MB-231, read-out: Growth inhibition %",17.8%
same,inhibition at 10 µM,"[3]; MDA-MB-435 (Melanoma), 10 uM single dose, read-out: Growth inhibition %",29.5%
same,inhibition at 10 µM,"[3]; MDA-MB-468 (Breast Cancer), 10 uM single dose, read-out: Growth inhibition %",47.6%
same,inhibition at 10 µM,"[3]; NCI-H226 (Non-Small Cell Lung Cancer), 10 uM single dose, read-out: Growth inhibition %",28.4%
same,inhibition at 10 µM,"[3]; NCI-H322M (Non-Small Cell Lung Cancer), 10 uM single dose, read-out: Growth inhibition %",12.5%
same,inhibition at 10 µM,"[3]; NCI-H460 (Non-Small Cell Lung Cancer), 10 uM single dose, read-out: Growth inhibition %",41.5%
same,inhibition at 10 µM,"[3]; NCI-H522 (Non-Small Cell Lung Cancer), 10 uM single dose, read-out: Growth inhibition %",38.6%
same,inhibition at 10 µM,"[3]; OVCAR-3 (Ovarian Cancer), 10 uM single dose, read-out: Growth inhibition %",22.5%
same,inhibition at 10 µM,"[3]; OVCAR-4 (Ovarian Cancer), 10 uM single dose, read-out: Growth inhibition %",41.8%
same,inhibition at 10 µM,"[3]; OVCAR-8 (Ovarian Cancer), 10 uM single dose, read-out: Growth inhibition %",30.4%
same,inhibition at 10 µM,"[3]; PC-3 (Prostate Cancer), 10 uM single dose, read-out: Growth inhibition %",37.6%
same,inhibition at 10 µM,"[3]; RPMI-8226 (Leukemia), 10 uM single dose, read-out: Growth inhibition %",50.8%
same,inhibition at 10 µM,"[3]; RXF 393 (Renal Cancer), 10 uM single dose, read-out: Growth inhibition %",32.4%
same,inhibition at 10 µM,"[3]; SF-295 (CNS Cancer), 10 uM single dose, read-out: Growth inhibition %",41.4%
same,inhibition at 10 µM,"[3]; SF-539 (CNS Cancer), 10 uM single dose, read-out: Growth inhibition %",18.5%
same,inhibition at 10 µM,"[3]; SK-MEL-2 (Melanoma), 10 uM single dose, read-out: Growth inhibition %",27.6%
same,inhibition at 10 µM,"[3]; SK-MEL-28 (Melanoma), 10 uM single dose, read-out: Growth inhibition %",19.9%
same,inhibition at 10 µM,"[3]; SN12C (Renal Cancer), 10 uM single dose, read-out: Growth inhibition %",37.3%
same,inhibition at 10 µM,"[3]; SNB-19 (CNS Cancer), 10 uM single dose, read-out: Growth inhibition %",20.4%
same,inhibition at 10 µM,"[3]; SW-620 (Colon Cancer), 10 uM single dose, read-out: Growth inhibition %",21.9%
same,inhibition at 10 µM,"[3]; U-251, U251 (CNS Cancer), 10 uM single dose, read-out: Growth inhibition %",28.5%
same,inhibition at 10 µM,"[3]; UACC-62 (Melanoma), 10 uM single dose, read-out: Growth inhibition %",47.4%
same,inhibition at 10 µM,"[3]; UACC-257 (Melanoma), 10 uM single dose, read-out: Growth inhibition %",26.4%
same,inhibition at 10 µM,SK-MEL-5,71.1%
same,inhibition at 10 µM,[4],24.5%
same,inhibition at 10 µM,UO-31,51.5%
same,inhibition at 10 µM,[5],20.4%
same,inhibition at 10 µM,T-47D,53%
